Source: patent US10501460B2, “Heterocyclic compounds and uses thereof” (Plexxikon Inc., priority 2013, dated 2019)

Experiments:
BRD4-BD1 (44-164) = molecular target: T1, BRD4-BD1 (44-164) (Homo sapiens, UniProt O60885); assay: Alphascreen binding assay BRD4-BD1 (BRD4 biochemical inhibitory activity); conditions: read-out: Biochemical activity (IC50 μM) BRD4(1) H4
T1 construct: BRD4-BD1 (44-164); made in house; host or cells: E. coli BL21-CodonPlus (DE3)
Procedure: Binding of compounds of formula (I) with bromodomain 2, 3 4 was assessed using Alphascreen binding assay. The inhibition of the interaction between bromodomain and its acetylated target protein (Filippakopoulos P et al. 2012) was measured quantitatively using recombinant BRD proteins, an acetylated Histone 4 peptide and AlphaScreen™ technology. In absence of inhibition the BRD protein bound to AlphaScreen™ nickel chelate acceptor beads can interact with the acetylated Histone 4 peptide which is immobilized by the AlphaScreen™ Streptavidin coated beads. This interaction brings donor and acceptor beads in proximity. The close proximity allows the singlet oxygen produced by laser excitation of the donor beads to reach the acceptor beads and generate a luminescence signal. BRD inhibitors result in a decrease in the proximity signal through an inhibition of the BRD—acetylated peptide interaction.
Recombinant human bromodomains containing the N-terminal bromodomain (BRD2-BD1 (71-194), BRD3-BD1 (24-144) and BRD4-BD1 (44-164)) or dual bromodomains (BRD4-BD12 (1-477), BRD4-BD12 (1-472)) were prepared and purified as described in protein expression and purification session. The peptide is human Histone H41-21K5AcK8AcK12AcK16Ac-Biotin (Anaspec Calif., USA).
Protocol for BRD2, BRD3 and BRD4 assay: All components are prepared in buffer composed of 50 mM HEPES pH 7.5, 100 mM NaCl, 0.01% bovine serum albumin (“BSA”), 0.01% Triton X-100, 2 mM dithiothreitol (“DTT”). 7 μL of Bromodomain protein and 7 μL of peptide are added to wells containing 1 μL of various concentrations of test compounds of formula (I) or DMSO vehicle in an Alphaplate (PerkinElmer Ga., USA) and incubated for 1 hour at room temperature. 4 μL donor and acceptor bead mixture is then added with final concentrations of 7.5 μg/ml. 30 minutes after bead addition, Alpha signal is read on the Envision spectrometer ([…]Ex 680 nm, […]Em 520-620 nm). Final concentrations of bromodomain proteins and peptide are as shown below.
All data was normalized to the mean of 16 high and 16 low control wells on each plate. A four parameter curve fit of the following formula was then applied: Y=a+(b−a)/(1+(x/c)^d) Where ‘a’ is the minimum, ‘b’ is the maximum, ‘c’ is the pIC50 and ‘d’ is the Hill slope. Protein Expression and Purification
Recombinant human bromodomains containing the N-terminal bromodomain (BRD2-BD1 (71-194), BRD3-BD1 (24-144) and BRD4-BD1 (44-164)) or dual bromodomains (BRD4-BD12 (1-477), BRD4-BD12 (1-472)) were expressed in E. coli cells (in a modified pET vector) with an N-terminal six-His tag and purified using a combination of both IMAC (Ni-affinity) and size exclusion chromatography steps.
Recombinant BRD proteins were expressed using the E. coli strain BL21-CodonPlus (DE3) (Agilent Technologies Calif., USA). Cells were grown in Terrific Broth (TB) media to an OD600 of 1.2 at 37° C. at which temperature was reduced to 25° C., protein was induced with 1.0 mM ispropyl-β-D-thiogalactopyranoside (“IPTG”) for 12-18 hours and harvested by centrifugation at 8000×g for 20 minutes. Cells were re-suspended in 0.1M K2PO4 pH 8.0, 250 mM NaCl, 10% Glycerol, 0.75% NP-40, 25 mM Imidazole, 5 mM beta-mercaptoethanol (“BME”) with 0.2 mg/ml Lysosyme, 2.0 mM phenylmethanesulfonyl fluoride (“PMSF”), 25 μg/ml DNAse I, incubated on ice for 30 minutes and lyzed with a cell disruptor (MicroFluidics Mass., USA). The lysate was clarified by centrifugation at 20,000×g for 2 hours. The protein was captured with Ni-NTA resin (Life Technologies, USA). Contaminating proteins were washed off with 25 mM Tris-HCl pH 8.3, 250 mM NaCl, 12% Glycerol and 50 mM Imidazole. Following 3× wash steps, protein was eluted step wise using a 50 mM HEPES pH 7.5, 500 mM NaCl and 400 mM Imidazole. The protein was further purified using Gel Filtration column 26/600 Superdex 200 (GE Biosciences NJ, USA) in 50 mM HEPES pH 7.5, 250 mM NaCl. The protein was aliquoted and flash-frozen in liquid Nitrogen. […]

MV-4-11 = assay: Oncology cell growth assay MV-4-11 (CellTiter Glo, 72 hours); assay type: cell-based; conditions: Homo sapiens, MV4-11, 72 h; MV-4-11 cell growth inhibitory activity, 3d
Procedure, shortened: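 MV-4-11 cells (MLL-AF4 AML) exposed 72 h to 8-point 1:3 titration, top final 10 μM, 0.2% DMSO. CellTiter Glo luminescence as cell-number readout, normalized to DMSO controls; pIC50 from four-parameter fit.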

bromodomain = assay: Bromodomain cell assays of Example 40 (at least one of them); assay type: cell-based; conditions: in at least one of the bromodomain cell assays described in Example 40
Procedure, shortened: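 Growth inhibition: 3000 MV-4-11, MOLM-13, MM.1S or neuroblastoma cells/well got an 8-point 1:3 series from 10 μM top (0.2% DMSO) for 72 h, then CellTiter-Glo luminescence. Myc reporter: MV-4-11 with E-box firefly luciferase, 24 h exposure, One-Glo luminescence plus CellTiter-Fluo cell count. pIC50 from four-parameter fit.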

SMILES | IC50 (BRD4-BD1 (44-164)) | IC50 (MV-4-11) | IC50 (bromodomain)
[2H]C([2H])(C1CCC(F)(F)CC1)n1cc(-c2cnn(C3CC3)c2)c2ncc(-c3c(C)noc3C)cc21 [P-0220, 4-[3-(1-cyclopropylpyrazol-4-yl)-1-[dideuterio-(4,4-difluorocyclohexyl)methyl]pyrrolo[3,2-b]pyridin-6-yl]-3,5-dimethyl-isoxazole] | ≤ 1 µM | ≤ 1 µM | < 10 µM
Cc1nc(-c2cn(S(=O)(=O)c3ccccc3)c3cc(-c4c(C)noc4C)cnc23)cs1 [P-0191, 4-[1-(benzenesulfonyl)-3-(2-methylthiazol-4-yl)pyrrolo[3,2-b]pyridin-6-yl]-3,5-dimethyl-isoxazole] | 1 to 10 µM | ≤ 1 µM | < 10 µM
Cc1cc2cc(-c3c(C)noc3C)cnc2[nH]1 [P-0017, 3,5-dimethyl-4-(2-methyl-1H-pyrrolo[2,3-b]pyridin-5-yl)isoxazole] | 1 to 10 µM | 1 to 10 µM | < 10 µM
Cc1noc(C)c1-c1cnc2c(c1)c(CC1CC3CCC1C3)cn2C (stereo not drawn) [P-0100, 3,5-dimethyl-4-[1-methyl-3-(norbornan-2-ylmethyl)pyrrolo[2,3-b]pyridin-5-yl]isoxazole] | 1 to 10 µM | 1 to 10 µM | < 10 µM
COc1ccc(S(=O)(=O)n2ccc3ncc(-c4c(C)noc4C)cc32)cc1 [P-0032, 4-[1-(4-methoxyphenyl)sulfonylpyrrolo[3,2-b]pyridin-6-yl]-3,5-dimethyl-isoxazole] | 1 to 10 µM | 1 to 10 µM | < 10 µM
Cc1noc(C)c1-c1cnc2ccn(S(=O)(=O)c3ccc(F)cc3)c2c1 [P-0052, 4-[1-(4-fluorophenyl)sulfonylpyrrolo[3,2-b]pyridin-6-yl]-3,5-dimethyl-isoxazole] | 1 to 10 µM | 1 to 10 µM | < 10 µM
Cc1noc(C)c1-c1cnc2c(c1)c(S(=O)(=O)c1ccccc1)cn2C1CCOCC1 [P-0183, 4-[3-(benzenesulfonyl)-1-tetrahydropyran-4-yl-pyrrolo[2,3-b]pyridin-5-yl]-3,5-dimethyl-isoxazole] | 1 to 10 µM | ≤ 1 µM | < 10 µM
Cc1noc(C)c1-c1cnc2[nH]cc(C=C3CC[S+]([O-])CC3)c2c1 (stereo not drawn) [P-0093, 4-[[5-(3,5-dimethylisoxazol-4-yl)-1H-pyrrolo[2,3-b]pyridin-3-yl]methylene]thiane 1-oxide] | 1 to 10 µM | 1 to 10 µM | < 10 µM
Cc1noc(C)c1-c1cnc2c(c1)c(Sc1ccccc1)cn2C1COC1 [P-0178, 3,5-dimethyl-4-[1-(oxetan-3-yl)-3-phenylsulfanyl-pyrrolo[2,3-b]pyridin-5-yl]isoxazole] | 1 to 10 µM | 1 to 10 µM | 
Cc1noc(C)c1-c1cnc2c(c1)c(S(=O)(=O)c1ccccc1)cn2C1COC1 [P-0179, 4-[3-(benzenesulfonyl)-1-(oxetan-3-yl)pyrrolo[2,3-b]pyridin-5-yl]-3,5-dimethyl-isoxazole] | 1 to 10 µM | 1 to 10 µM | < 10 µM
Cc1noc(C)c1-c1cnc2ccn(S(=O)(=O)c3cccs3)c2c1 [P-0055, 3,5-dimethyl-4-[1-(2-thienylsulfonyl)pyrrolo [3,2-b]pyridin-6-yl]isoxazole] | 1 to 10 µM | 1 to 10 µM | < 10 µM
Cc1noc(C)c1-c1cnc2[nH]cc(C(=O)C3CCSCC3)c2c1 [P-0091, [5-(3,5-dimethylisoxazol-4-yl)-1H-pyrrolo[2,3-b]pyridin-3-yl]-tetrahydrothiopyran-4-yl-methanone] | ≤ 1 µM | 1 to 10 µM | < 10 µM
Cc1noc(C)c1-c1cnc2c(-c3cnn(C)c3)cn(C(=O)C3CCC(F)(F)CC3)c2c1 [P-0208, (4,4-difluorocyclohexyl)-[6-(3,5-dimethylisoxazol-4-yl)-3-(1-methylpyrazol-4-yl)pyrrolo[3,2-b]pyridin-1-yl]methanone] | ≤ 1 µM | 1 to 10 µM | 
Cc1noc(C)c1-c1cnc2[nH]cc(C(=O)c3cccnc3)c2c1 [P-0004, [5-(3,5-dimethylisoxazol-4-yl)-1H-pyrrolo[2,3-b]pyridin-3-yl]-(3-pyridyl)methanone] | 1 to 10 µM |  | < 10 µM
Cc1noc(C)c1-c1cnc2[nH]cc(Cc3ccc(C(F)(F)F)cc3)c2c1 [P-0015, 3,5-dimethyl-4-[3-[[4-(trifluoromethyl)phenyl]methyl]-1H-pyrrolo[2,3-b]pyridin-5-yl]isoxazole] | 1 to 10 µM |  | < 10 µM
Cc1noc(C)c1-c1cnc2c(I)cn([Si](C(C)C)(C(C)C)C(C)C)c2c1 [P-0130, [6-(3,5-dimethylisoxazol-4-yl)-3-iodo-pyrrolo[3,2-b]pyridin-1-yl]-triisopropyl-silane] | 1 to 10 µM |  | < 10 µM
Cc1noc(C)c1-c1ccc2[nH]ccc2c1 [P-0002, 4-(1H-indol-5-yl)-3,5-dimethyl-isoxazole] | 1 to 10 µM |  | < 10 µM
Cc1noc(C)c1-c1cnc2c(c1)N(S(=O)(=O)c1ccccc1)CC2CCC(=O)O (stereo not drawn) [P-0175, 3-[1-(benzenesulfonyl)-6-(3,5-dimethylisoxazol-4-yl)-2,3-dihydropyrrolo[3,2-b]pyridin-3-yl]propanoic acid] | 1 to 10 µM |  | < 10 µM
CCc1[nH]c2ncc(-c3c(C)noc3C)cc2c1Cc1cccc(OC(F)(F)F)c1 [P-0050, 4-[2-ethyl-3-[[3-(trifluoromethoxy)phenyl]methyl]-1H-pyrrolo[2,3-b]pyridin-5-yl]-3,5-dimethyl-isoxazole] | 10 to 200 µM |  | < 10 µM
Cc1noc(C)c1-c1cnc2c(c1)c(CC1CCS(=O)(=O)CC1)cn2S(=O)(=O)c1ccccc1 [P-0096, 4-[[1-(benzenesulfonyl)-5-(3,5-dimethylisoxazol-4-yl)pyrrolo[2,3-b]pyridin-3-yl]methyl]thiane 1,1-dioxide] | 1 to 10 µM |  | < 10 µM
COc1ccccc1S(=O)(=O)n1ccc2ncc(-c3c(C)noc3C)cc21 [P-0065, 4-[1-(2-methoxyphenyl)sulfonylpyrrolo[3,2-b]pyridin-6-yl]-3,5-dimethyl-isoxazole] | 1 to 10 µM |  | < 10 µM
Cc1noc(C)c1-c1ccc2[nH]cc(CCN3CCCC3)c2c1 [P-0010, 3,5-dimethyl-4-[3-(2-pyrrolidin-1-ylethyl)-1H-indol-5-yl]isoxazole] | 1 to 10 µM |  | < 10 µM
Cc1noc(C)c1-c1cnc2ccn(S(=O)(=O)N3CCCC3)c2c1 [P-0068, 3,5-dimethyl-4-(1-pyrrolidin-1-ylsulfonylpyrrolo [3,2-b]pyridin-6-yl)isoxazole] | 1 to 10 µM |  | < 10 µM
